PMC11249646, “Small-Molecule Disruptors of the Interaction between Calcium- and Integrin-Binding Protein 1 and Integrin αIIbβ3 as Novel Antiplatelet Agents” (ACS Pharmacology & Translational Science, 2024)
Read-outs that look alike come from different tables or passages of the source.

Tests used:
[1] = target: T1, CIB1 and αIIb interaction (CIB1-GST : F-αIIb peptide) (Homo sapiens, UniProt Q99828); experiment: FP assay, 1536-well qHTS format (primary and confirmatory screen); assay type: binding; conditions: for Curve Class (confirmatory screen) / CONFIRMATORY SCREEN Curve Class: qHTS curve class
T1 construct: made in house; host or cells: BL-21 plus RIL cells (E. coli)
T1 sequence (Q99828 1-191): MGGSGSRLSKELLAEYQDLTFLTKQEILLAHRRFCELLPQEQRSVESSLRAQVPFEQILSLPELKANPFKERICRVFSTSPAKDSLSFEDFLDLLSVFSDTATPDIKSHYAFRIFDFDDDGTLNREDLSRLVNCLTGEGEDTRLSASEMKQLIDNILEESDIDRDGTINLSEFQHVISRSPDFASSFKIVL

[2] = target: T2, GST-CIB1 : F-scrambled peptide (Homo sapiens, UniProt Q99828); experiment: FP scrambled-peptide counter screen, 1536-well format; assay type: binding; conditions: for Curve Class (counterscreen) / COUNTERSCREEN Curve Class: qHTS curve class; for IC50: read-out: IC50 [μM] (counterscreen)
T2 construct: made in house; host or cells: BL-21 plus RIL cells (E. coli)
T2 sequence (Q99828 1-191): T1 sequence (Q99828 1-191)

[3] = confirmatory screen, negative sign = inhibitory curve
[4] = confirmatory screen, read-out: IC50 [μM] (confirmatory screen)
[5] = qHTS primary screen hits, Table S2, negative = inhibition
[6] = qHTS primary screen hits, Table S2, negative sign = inhibitory curve, several classes where COUNT > 1
[7] = qHTS primary screen hits, Table S2, read-out: IC50
[8] = counterscreen, negative sign = inhibitory curve
[9] = Table S3, confirmatory screen, YES/NO call
[10] = Table S3, confirmatory screen, a negative sign marks inhibitory curves
[11] = Table S3, confirmatory screen, negative = inhibition
[12] = Table S3, confirmatory screen, read-out: IC50 [μM] (confirmatory screen)
[13] = Table S3, counterscreen, a negative sign marks inhibitory curves
[14] = Table S3, counterscreen, negative = inhibition
[15] = qHTS FP screen hits, Table S2, negative = inhibition
[16] = qHTS FP screen hits, Table S2, one class per curve where COUNT > 1, negative sign = inhibitory curve
[17] = qHTS FP screen hits, Table S2, read-out: IC50

| Efficacy (%) (confirmatory screen) ([1]; confirmatory screen) | Confirm? (confirmatory screen) ([1]; confirmatory screen, YES/NO) | Curve Class (confirmatory screen) [1, 3] | Efficacy (%) (counterscreen) ([2]; counterscreen) | Curve Class (counterscreen) [2, 8] | Curve Class (confirmatory screen) [1, 10] | Efficacy (%) (confirmatory screen) [1, 11] | Curve Class (counterscreen) [2, 13] | Efficacy (%) (counterscreen) [2, 14] | IC50 ([2]; Table S3, counterscreen) [µM] | Efficacy (%) [1, 15] [%] | Curve Class [1, 16] | IC50 [1, 17] [µM] | Structure (SMILES) | IC50 [1, 4] [µM] | Efficacy (%) [1, 5] [%] | Curve Class [1, 6] | IC50 [1, 7] [µM] | IC50 ([2]; counterscreen) [µM] | also measured |
| --- | --- | --- | --- | --- | --- | --- | --- | --- | --- | --- | --- | --- | --- | --- | --- | --- | --- | --- | --- |
| – | – | – | – | – | 4 | -16 | 3 | 64 | 89.1 | -32 | -1.2 | 3.5 | O=C(O)c1csc(-n2nc(-c3ccc(F)c(F)c3)c3cccnc32)n1 [NCGC00356667-01] | – | – | – | – | – | – |
| -44 | YES | -2.2 | -17 | 4 | – | – | – | – | – | -56 | -2.2 | 50.1 | CN1CCN([C@H]2CC[C@H](n3cc(-c4ccc(Oc5ccccc5)cc4)c4c(N)ncnc43)CC2)CC1.Cl [NCGC00370980-02] | – | – | – | – | – | Confirm? (counterscreen) ([2]; counterscreen, YES/NO): YES |
| – | – | – | – | – | -1.2 | -43 | -1.2 | -47 | 2.2 | -32 | -1.2 | 2.5 | C=C1C(=O)OC2C(OC(=O)C=C(C)C)C(C)=C3C(=O)C=C(C)C3C(O)C12 (centres unmarked) [NCGC00380563-01] | – | – | – | – | – | Confirm? (confirmatory screen) [1, 9]: YES; IC50 [1, 12]: 2 µM |
| – | – | – | – | – | 4 | -25 | -3 | 0 | – | -53 | -2.2 | 56.2 | CC(=O)c1c(O)cc2c(c1C)C(=O)CC(O)C2 (centres unmarked) [NCGC00380695-01] | – | – | – | – | – | – |
| -43 | YES | -1.2 | -39 | -1.2 | – | – | – | – | – | -35 | -1.2 | 3.5 | C=C1C(=O)O[C@@H]2[C@H]3C(C)=CC(=O)C3=C(C)[C@@H](OC(=O)/C(C)=C\C)[C@H](O)[C@@H]12 [NCGC00380702-01] | 1.6 | – | – | – | 1.6 | – |
| -68 | YES | -2.2 | -55 | -2.2 | – | – | – | – | – | -42 | -2.2 | 44.7 | CC1(C)C=CN2C(=O)C3=CCCN3C(=O)[C@@H]2C[C@@]12Nc1ccccc1C2=O [NCGC00380729-01] | – | – | – | – | 39.8 | – |
| – | – | – | – | – | -2.2 | -84 | -2.1 | -99 | 39.8 | -51 | -2.2 | 50.1 | CC(=O)c1c(O)cc2cccc3c2c1CC(C)(O)O3 (centres unmarked) [NCGC00381142-01] | – | – | – | – | – | Confirm? (confirmatory screen) [1, 9]: YES; IC50 [1, 12]: 39.8 µM |
| -71 | YES | -2.2 | -31 | -1.4 | – | – | – | – | – | -30 | -2.2 | 20 | C=C1C(OC(=O)/C(C)=C\C)[C@@]23CCC4[C@@](C)(CCC[C@@]4(C)C(=O)O)C2CC[C@H]1C3OC(C)=O (some centres unmarked) [NCGC00381205-01] | 31.6 | – | – | – | 8.9 | – |
| -74 | YES | -2.2 | -85 | -2.2 | – | – | – | – | – | -50 | -2.2 | 50.1 | CC(=O)NC(Cc1c[nH]c2ccccc(=O)c12)C(=O)O (centres unmarked) [NCGC00381382-01] | 44.7 | – | – | – | 89.1 | – |

The remaining lines, values behind:

| Structure (SMILES) | Efficacy (%) (confirmatory screen) ([1]; confirmatory screen) | Confirm? (confirmatory screen) ([1]; confirmatory screen, YES/NO) | Curve Class (confirmatory screen) [1, 3] | Efficacy (%) (counterscreen) ([2]; counterscreen) | Curve Class (counterscreen) [2, 8] | Curve Class (confirmatory screen) [1, 10] | Efficacy (%) (confirmatory screen) [1, 11] | Curve Class (counterscreen) [2, 13] | Efficacy (%) (counterscreen) [2, 14] | IC50 ([2]; Table S3, counterscreen) [µM] | Efficacy (%) [1, 15] [%] | Curve Class [1, 16] | IC50 [1, 17] [µM] | IC50 [1, 4] [µM] | Efficacy (%) [1, 5] [%] | Curve Class [1, 6] | IC50 [1, 7] [µM] | IC50 ([2]; counterscreen) [µM] | also measured |
| --- | --- | --- | --- | --- | --- | --- | --- | --- | --- | --- | --- | --- | --- | --- | --- | --- | --- | --- | --- |
| Cc1cccc(C(=O)c2no[n+]([O-])c2C(=O)c2cccc(C)c2)c1.O=C(O)C(F)(F)F [NCGC00351156-01] | -73 | YES | -2.2 | -65 | -1.2 | – | – | – | – | – | – | – | – | 31.6 | -52 | -1.2 | 7.9 | 10 | – |
| COc1cccc(C(=O)c2no[n+]([O-])c2C(=O)c2cccc(OC)c2)c1 [NCGC00351157-02] | – | – | – | – | – | -1.4 | -52 | -1.2 | -60 | 17.8 | – | – | – | – | -53 | – | 22.2 | – | Confirm? (confirmatory screen) [1, 9]: YES; IC50 [1, 12]: 12.6 µM |
| Cc1ccccc1C(=O)N1CCc2cc(-c3nc(NC(=O)Cc4ccc(OCCOCCOCCN)cc4)sc3C)ccc21.O=C(O)C(F)(F)F [NCGC00351618-01] | -41 | YES | -1.2 | -31 | -2.4 | – | – | – | – | – | – | – | – | 39.8 | -25 | -1.4 | 17.8 | 11.2 | – |
| Cn1ccc(=Nc2ccc(NC(=O)c3ccc(/N=c4\ccn(C)c5ccc([N+](=O)[O-])cc45)cc3[N+](=O)[O-])cc2)cc1.O=C(O)C(F)(F)F [NCGC00356066-02] | -82 | YES | -1.2 | -46 | -1.2 | – | – | – | – | – | – | – | – | – | -65 | -2.2 | 39.8 | 12.6 | – |
| Cc1cc(/N=N/c2ccc(S(=O)(=O)Nc3ccccn3)cc2)c(N)cc1O [NCGC00356068-01] | -64 | YES | -2.2 | -44 | -1.2 | – | – | – | – | – | -50 | -2.2 | 35.5 | 39.8 | – | – | – | 44.7 | – |
| O=C(O)C(F)(F)F.O=C(O)c1csc(-n2nc(-c3ccc(F)c(F)c3)c3cccc(O)c32)n1 [NCGC00356386-01] | – | – | – | – | – | – | – | – | – | – | -22 | – | 3.2 | – | – | – | – | – | CONFIRMATORY SCREEN Efficacy (%) ([1]; confirmatory screen): -21%; CONFIRMATORY SCREEN Curve Class ([1]; confirmatory screen): 4; COUNTERSCREEN Efficacy (%) ([2]; counterscreen): 0%; COUNTERSCREEN Curve Class ([2]; counterscreen): 4 |
| NC(=O)c1ccc(Cc2c(-c3cccc(-c4ccccc4)c3)nn(-c3nc(C(=O)O)cs3)c2O)cc1.O=C(O)C(F)(F)F [NCGC00356638-01] | -125 | YES | -2.1 | -60 | -2.2 | – | – | – | – | – | – | – | – | 70.8 | -59 | -2.2 | 56.2 | 44.7 | – |
| O=C(O)C(F)(F)F.O=C(O)c1ccc(Cc2c(-c3cccc(-c4ccccc4)c3)nn(-c3nc(C(=O)O)cs3)c2O)cc1 [NCGC00356639-01] | – | – | – | – | – | -2.2 | -79 | -2.1 | -99 | 39.8 | – | – | – | – | -39 | -2.2 | 39.8 | – | Confirm? (confirmatory screen) [1, 9]: YES; IC50 [1, 12]: 50.1 µM |
| NS(=O)(=O)c1ccc(Cc2cn(-c3nc(C(=O)O)cs3)nc2-c2ccc(F)c(F)c2)cc1.O=C(O)C(F)(F)F [NCGC00356753-01] | – | – | – | – | – | 4 | -27 | – | 54 | 56.2 | – | – | – | – | -29 | -2.4 | 31.6 | – | – |
| O=C(NC1=CC(=O)c2ccccc2C1=O)c1ccccc1.O=C(O)C(F)(F)F [NCGC00357425-01] | -159 | YES | -1.1 | -113 | -1.1 | – | – | – | – | – | – | – | – | 11.2 | -92 | – | 25.1 | 11.2 | Curve Class ([1]; qHTS primary screen hits, Table S2, negative sign = inhibitory curve): -1.1 |
| COc1ccccc1Nc1ccc2c(O)cc(S(=O)(=O)O)cc2c1.O=C(O)C(F)(F)F [NCGC00372954-01] | – | – | – | – | – | -2.1 | -93 | -2.4 | -89 | 22.4 | -41 | -2.2 | 35.5 | – | – | – | – | – | Confirm? (confirmatory screen) [1, 9]: YES; IC50 [1, 12]: 25.1 µM |
| O=C1C=CC(=O)N1c1ccc(N2CCOCC2)cc1 [NCGC00373122-01] | – | – | – | – | – | – | – | – | – | – | – | – | – | – | -33 | -2.4 | 28.2 | – | CONFIRMATORY SCREEN Efficacy (%) ([1]; confirmatory screen): -44%; CONFIRMATORY SCREEN Curve Class ([1]; confirmatory screen): 4; COUNTERSCREEN Efficacy (%) ([2]; counterscreen): -8%; COUNTERSCREEN Curve Class ([2]; counterscreen): 4 |
